Experiment [1] deals with A549 cells. The experiment in a line: Sulforhodamine B (SRB) assay, A549. In kind it is cell-based. The following applies: Homo sapiens, read-out: GI50 con. ± SEM A549. The method, then:
(§1) The A549 and PC-3 human lung and prostate cancer cell lines were acquired from the American Type Culture Collection (Rockville, MD). […] The cultures were kept in a 37 °C incubator with 5% CO2. When the adherent cultures reached 80% confluence, they were passaged using 0.05% trypsin-EDTA. PC-3 and A549 cells were seeded into 96-well plates in RPMI medium with 5% (v/v) foetal bovine serum for 24 h. Cells in partial wells were fixed with 10% trichloroacetic acid (TCA) to represent the initial time of compound treatment. The cells were treated with or without the indicated compound for 48 h and then were fixed with 10% TCA. After the washout with ddH2O and air-dried, SRB at 0.4% (w/v) in 1% acetic acid was added for staining. Unbound SRB was washed with 1% acetic acid and SRB-bounded cells were solubilised with 10 mM Tris base. The absorbance was read at a wavelength of 515 nm for the determination of cell growth.
Background: The SRB assay estimates cell density from bound dye.

Experiment [2] addresses T1, HDAC6 (Homo sapiens, UniProt Q9UBN7).
T1 sequence (Q9UBN7 1-1215): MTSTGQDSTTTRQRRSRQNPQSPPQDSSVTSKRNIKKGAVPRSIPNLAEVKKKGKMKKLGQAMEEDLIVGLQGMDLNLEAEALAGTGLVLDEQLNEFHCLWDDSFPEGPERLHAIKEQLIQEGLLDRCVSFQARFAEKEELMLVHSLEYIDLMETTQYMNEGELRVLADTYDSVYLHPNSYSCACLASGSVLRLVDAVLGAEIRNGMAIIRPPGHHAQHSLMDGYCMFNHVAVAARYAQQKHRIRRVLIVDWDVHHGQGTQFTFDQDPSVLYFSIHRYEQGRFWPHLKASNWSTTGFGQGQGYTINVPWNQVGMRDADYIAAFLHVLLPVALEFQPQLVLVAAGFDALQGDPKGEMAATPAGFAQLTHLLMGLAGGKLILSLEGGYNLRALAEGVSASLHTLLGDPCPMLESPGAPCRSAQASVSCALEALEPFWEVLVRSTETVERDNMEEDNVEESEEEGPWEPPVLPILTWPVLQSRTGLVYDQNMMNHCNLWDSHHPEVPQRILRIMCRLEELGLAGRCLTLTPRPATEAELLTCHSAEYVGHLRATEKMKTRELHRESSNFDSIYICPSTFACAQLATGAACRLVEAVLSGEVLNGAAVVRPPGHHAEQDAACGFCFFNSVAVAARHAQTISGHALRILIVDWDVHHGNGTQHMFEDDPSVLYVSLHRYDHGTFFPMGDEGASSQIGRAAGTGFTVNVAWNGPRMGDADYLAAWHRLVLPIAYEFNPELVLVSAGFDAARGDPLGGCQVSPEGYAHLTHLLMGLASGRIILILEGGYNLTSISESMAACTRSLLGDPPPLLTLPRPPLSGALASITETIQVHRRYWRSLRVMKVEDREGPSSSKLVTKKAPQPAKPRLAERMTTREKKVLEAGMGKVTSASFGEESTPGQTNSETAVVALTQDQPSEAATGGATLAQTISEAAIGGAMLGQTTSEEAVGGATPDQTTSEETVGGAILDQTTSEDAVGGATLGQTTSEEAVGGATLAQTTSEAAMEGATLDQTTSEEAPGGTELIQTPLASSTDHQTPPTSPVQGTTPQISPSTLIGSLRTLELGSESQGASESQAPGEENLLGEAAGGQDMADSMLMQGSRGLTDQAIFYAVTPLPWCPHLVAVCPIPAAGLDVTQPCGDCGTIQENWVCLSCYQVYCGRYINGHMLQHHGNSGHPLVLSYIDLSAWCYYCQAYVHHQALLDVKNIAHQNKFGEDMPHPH
Briefly: HDAC enzyme activity assay (Reaction Biology), HDAC6. Type of experiment: biochemical. The arrangement: Full-length recombinant hHDAC 6 was expressed in a baculovirus expression system in SF9 cells; purchased Reaction Biology Corporation (Malvern, PA); host or cells: baculovirus / SF9 insect cells. As to conditions: for HDAC1/6 Selectivity: ratio of HDAC1 IC50 to HDAC6 IC50; for IC50: full-length recombinant hHDAC 6, RHKKAc substrate 50 μM, 2 h at 30 °C. Here is the method:
HDAC inhibition assays were performed by Reaction Biology Corporation (Malvern, PA). Full-length recombinant hHDAC 6 was expressed in a baculovirus expression system in SF9 cells. […] The reaction was stopped after 2 h at 30 °C . Trichostatin A was used as an internal control.

Experiment [3] addresses T2, HDAC1 (Homo sapiens, UniProt Q13547).
T2 construct: purchased Reaction Biology Corporation (Malvern, PA)
Briefly: HDAC enzyme activity assay (Reaction Biology), HDAC1. Type of experiment: biochemical.

Experiment [4] relates to PC-3 cells. The experiment in a line: Sulforhodamine B (SRB) assay, PC-3. The following applies: Homo sapiens, read-out: GI50 con. ± SEM PC-3. In kind it is cell-based. Here is the method:
as §1

Experiment [5] addresses T1, HDAC6. The experiment in a line: Western blotting of HDAC6 protein (degradation) in PC-3 cells. Type of experiment: cell-based. The arrangement: endogenous in cells; host or cells: PC-3 (ATCC). The following applies: 30 μM, 24 h. The method, then:
(§2) Figure 3. Western blotting analysis of (a) HDAC6 protein in PC-3 cells treated with various dimer compounds at 30 μM for 24 h, (b) Ac-α-tubulin protein in PC-3 cells treated with various dimer compounds at 30 μM for 24 h, (c) LC-3 I, LC-3 II, and p62 proteins in PC-3 cells treated with various dimer compounds at 30 μM for 24 h, (d) PARP-1 and Caspase-3 proteins in PC-3 cells treated with various dimer compounds at 30 μM for 24 h, (e) p-BUBR1^S670 and p-BUBR1^T680 proteins in PC-3 cells treated with various dimer compounds at 30 μM for 24 h. Glyceraldehyde 3-phosphate dehydrogenase (GAPDH) was used as the loading control.
(§3) After compound treatment, the cells were harvested and centrifuged. […] The supernatants quantified by Bio-Rad protein assay kit (Bio-Rad Laboratories, Hercules, CA) were mixed with sample buffer (0.3 M Tris pH6.8, 10% SDS, 50% glycerol, 10% β-mercaptoethanol, and 0.02% bromophenol blue) and heated at 95 °C for 10 min. The protein (30 µg) was separated by electrophoresis in 8% or 12% SDS-PAGE, transferred to PVDF membranes, and detected with specific antibodies (1:1000 dilution for the first and 1:7000 for the second antibodies). The immunoreactive proteins were detected with an enhanced chemiluminescence detection kit (Amersham, Buckinghamshire, UK) and the images were captured by ChemiDoc™ MP System (Bio-Rad Laboratories, Hercules, CA).

Experiment [6] deals with PARP-1 and Caspase-3. The experiment in a line: Western blotting of apoptosis biomarkers PARP-1 and Caspase-3 in PC-3 cells. Type of experiment: cell-based, human. As to conditions: 30 μM, 24 h. The method, then:
as §2, §3
Background: Immunoblotting shows a protein as a band on a membrane.

Experiment [7] has as its system LC-3 II and p62. Briefly: Western blotting of autophagy proteins LC-3 II and p62 in PC-3 cells. As to conditions: 30 μM, 24 h. Type of experiment: cell-based, human. The method, then: as §2, §3

The source of these data is paper PMC11869342, “Design and synthesis of novel HDAC6 inhibitor dimer as HDAC6 degrader for cancer treatment by palladium catalysed dimerisation” (Journal of Enzyme Inhibition and Medicinal Chemistry, 2025).

The GI50 is the concentration that inhibits growth by half. One may read the IC50 as the concentration that gives 50% inhibition.

The structures appear in SMILES notation. Read-outs that look alike come from different tables or passages of the source.

T2 sequence (Q13547 whole entry): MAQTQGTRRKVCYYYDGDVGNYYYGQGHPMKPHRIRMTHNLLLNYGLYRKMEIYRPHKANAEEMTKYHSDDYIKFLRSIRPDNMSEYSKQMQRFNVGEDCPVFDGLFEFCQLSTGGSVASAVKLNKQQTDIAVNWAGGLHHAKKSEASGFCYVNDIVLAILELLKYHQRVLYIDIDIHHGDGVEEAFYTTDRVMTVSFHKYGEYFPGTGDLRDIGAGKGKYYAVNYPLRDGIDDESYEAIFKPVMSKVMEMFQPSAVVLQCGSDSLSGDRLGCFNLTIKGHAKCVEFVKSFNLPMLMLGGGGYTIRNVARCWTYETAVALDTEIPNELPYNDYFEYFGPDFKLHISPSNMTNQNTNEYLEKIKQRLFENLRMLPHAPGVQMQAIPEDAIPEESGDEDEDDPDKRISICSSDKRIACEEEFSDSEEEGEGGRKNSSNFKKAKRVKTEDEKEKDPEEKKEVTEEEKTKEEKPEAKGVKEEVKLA

Turning to `O=C(NO)c1ccc(Cn2c(=O)n(CCc3ccccc3)c(=O)c3ccccc32)cc1` [Compound 1], the GI50 in experiment [1] (A549, 48 h) worked out at 8.8 µM; in experiment [4] (PC-3, 48 h) it was 3.5 µM. Further, the “HDAC1/6 Selectivity” value in experiment [2] is reported as 2790. In addition, inhibition in experiment [3] was half-maximal at 11.2 µM (IC50).

Regarding `O=C(NO)c1ccc(Cn2c(=O)n(CCc3ccccc3)c(=O)c3cc(NCCOCCOCCOCCNc4ccc5c(c4)c(=O)n(CCc4ccccc4)c(=O)n5Cc4ccc(C(=O)NO)cc4)ccc32)cc1` [Compound 4a, 4-{[6-(2-{2-[2-(2-{1-[(4-Hydroxamophenyl)methyl]-2,4-dioxo-3-phenethylquinazolin-6-ylamino}ethoxy)ethoxy]ethoxy}ethylamino)-2,4-dioxo-3-phenethylquinazolin-1-yl]methyl}benzohydroxamic acid], the GI50 in experiment [1] (A549 cells, SRB, 48 h) was above 30 µM; in experiment [4] (PC-3 cells, SRB, 48 h), above 30 µM. The IC50 in experiment [2] is 0.092 µM.

With `O=C(NO)c1ccc(Cn2c(=O)n(CCc3ccccc3)c(=O)c3cc(NCCOCCOCCNc4ccc5c(c4)c(=O)n(CCc4ccccc4)c(=O)n5Cc4ccc(C(=O)NO)cc4)ccc32)cc1` [Compound 4b, 4-[(6-{2-[2-(2-{1-[(4-Hydroxamophenyl)methyl]-2,4-dioxo-3-phenethylquinazolin-6-ylamino}ethoxy)ethoxy]ethylamino}-2,4-dioxo-3-phenethylquinazolin-1-yl)methyl]benzohydroxamic acid], the GI50 in experiment [1] (A549 cells, SRB, 48 h) is above 30 µM; in experiment [4] (PC-3 cells, SRB, 48 h), above 30 µM. The IC50 in experiment [2] was 0.816 µM; in experiment [3] it was above 10 µM. For the same compound, the “HDAC1/6 Selectivity” value in experiment [2] is above 12.

Consider `O=C(NO)c1ccc(Cn2c(=O)n(CCc3ccccc3)c(=O)c3cc(NCCCCCNc4ccc5c(c4)c(=O)n(CCc4ccccc4)c(=O)n5Cc4ccc(C(=O)NO)cc4)ccc32)cc1` [Compound 4c, 4-{[6-(5-{1-[(4-Hydroxamophenyl)methyl]-2,4-dioxo-3-phenethylquinazolin-6-ylamino}pentylamino)-2,4-dioxo-3-phenethylquinazolin-1-yl]methyl}benzohydroxamic acid], for which the GI50 in experiment [1] (A549 cells, SRB, 48 h) is above 30 µM; in experiment [4] (PC-3 cells, SRB, 48 h) it was 21.4 ± 0.3 µM. In addition, the IC50 in experiment [2] was found to be 0.096 µM.

As for `O=C(NO)c1ccc(Cn2c(=O)n(CCc3ccc(NCCOCCOCCNc4ccc(CCn5c(=O)c6ccccc6n(Cc6ccc(C(=O)NO)cc6)c5=O)cc4)cc3)c(=O)c3ccccc32)cc1` [Compound 6b, 4-{[3-(2-{4-[2–(2-{2-[4-(2-{1-[(4-Hydroxamophenyl)methyl]-2,4-dioxoquinazolin-3-yl}ethyl)phenylamino]ethoxy}ethoxy)ethylamino]phenyl}ethyl)-2,4-dioxoquinazolin-1-yl]methyl}benzohydroxamic acid], the GI50 came out at 9.1 ± 1.8 µM in experiment [1] (A549 cells, SRB, 48 h) and 5.5 ± 0.7 µM in experiment [4] (PC-3 cells, SRB, 48 h). Also, the IC50 is 0.033 µM in experiment [2] and 9.57 µM in experiment [3]. Besides, the “HDAC1/6 Selectivity” value in experiment [2] was 283. Moreover, the “HDAC6 degradation (Western blot)” value in experiment [5] is recorded as “did not degrade HDAC6”. In addition, the “apoptosis induction (PARP-1 cleavage, Caspase-3 activation)” value in experiment [6] is “did not induce apoptosis”. Moreover, the “autophagy induction (LC-3 II level, p62 expression)” value in experiment [7] is “signs of inducing autophagy”.

In the case of `O=C(NO)c1ccc(Cn2c(=O)n(CCOCCOCCn3c(=O)c4ccccc4n(Cc4ccc(C(=O)NO)cc4)c3=O)c(=O)c3ccccc32)cc1` [Compound 8b, 4-[(3-{2-[2-(2-{1-[(4-Hydroxamophenyl)methyl]-2,4-dioxoquinazolin-3-yl}ethoxy)ethoxy]ethyl}-2,4-dioxoquinazolin-1-yl)methyl]benzohydroxamic acid], the GI50 in experiment [1] (A549 cells, SRB, 48 h) is above 30 µM; in experiment [4] (PC-3 cells, SRB, 48 h), above 30 µM. Further, the IC50 in experiment [2] was found to be 0.002 µM; in experiment [3], 3.19 µM. Moreover, the “HDAC1/6 Selectivity” value in experiment [2] worked out at 1386.

With `O=C(NO)c1ccc(Cn2c(=O)n(CCCCCn3c(=O)c4ccccc4n(Cc4ccc(C(=O)NO)cc4)c3=O)c(=O)c3ccccc32)cc1` [Compound 8c, 4-{[3-(5-{1-[(4-Hydroxamophenyl)methyl]-2,4-dioxoquinazolin-3-yl}pentyl)-2,4-dioxoquinazolin-1-yl]methyl}benzohydroxamic acid], the GI50 in experiment [1] (A549 cells, SRB, 48 h) is above 30 µM; in experiment [4] (PC-3 cells, SRB, 48 h) it was above 30 µM. For the same compound, the IC50 in experiment [2] came out at 0.027 µM.

For the compound `O=C(NO)c1ccc(CNc2ccccc2C(=O)NCCOCCOCCOCCNC(=O)c2ccccc2NCc2ccc(C(=O)NO)cc2)cc1` [Compound 11a], the GI50 came to 17.3 ± 0.2 µM in experiment [1] (A549 cells, SRB, 48 h) and 5.9 ± 0.7 µM in experiment [4] (PC-3 cells, SRB, 48 h). In addition, the IC50 in experiment [2] is 0.004 µM; in experiment [3], 2.6 µM. Also, in experiment [2], the “HDAC1/6 Selectivity” value is given as 577.

In the case of `O=C(NO)c1ccc(CNc2ccccc2C(=O)NCCOCCOCCNC(=O)c2ccccc2NCc2ccc(C(=O)NO)cc2)cc1` [Compound 11b], the GI50 turned out to be 17.9 ± 0.4 µM in experiment [1] (A549 cells, SRB, 48 h) and 11.3 ± 0.2 µM in experiment [4] (PC-3 cells, SRB, 48 h). Also, the concentration for half-maximal inhibition (IC50) in experiment [2] is 0.003 µM; in experiment [3] it was 1.27 µM. The “HDAC1/6 Selectivity” value in experiment [2] is 326.

Regarding `O=C(NO)c1ccc(CNc2ccccc2C(=O)NCCCCCNC(=O)c2ccccc2NCc2ccc(C(=O)NO)cc2)cc1` [Compound 11c], the GI50 in experiment [1] (A549 cells, SRB, 48 h) was found to be 6.6 ± 0.1 µM; in experiment [4] (PC-3 cells, SRB, 48 h), 8.2 ± 0.1 µM. In addition, the values for the IC50 in experiment [2] and in experiment [3] were 0.015 µM and 1.46 µM, respectively. In addition, the “HDAC1/6 Selectivity” value in experiment [2] worked out at 95.
